{"source": "patent US20030050302A1", "about": "“Treatment of conditions associated with amyloid processing using PKC activators” (Neurologic, Inc., priority 2000, published 2003)", "key": {"[1]": {"test_system": "113 pS TEA-sensitive K+ channel", "test": "Patch-clamp single-channel recording in AD cell line AG06848", "format": "cell-based, human", "procedure": "Patch-claim experiments were performed on 13 separate replicate representative experiments in a well-characterized AD cell line (AG06848) which is normally silent for the 113 pS TEA-sensitive K^+ channel (Etcheberrigaray et al., 1993). The experiment was performed at room temperature (21-23° C.) following standard procedures (Sakmann & Neher, 1983). The culture medium was replaced with the following solution (mM, NaCl 150, KCl 5, CaCl2 2, MgCl2 1, Hepes (NaOH) 10, pH 7.4, prior to recording. Benzolactam was added to a dish after ensuring that the patch is silent for the II 3 pS K^+ channel. The recording electrodes, filled with a high-K^+ solution (mM), KCl 140, CaCl2 2, MgCl2 1, Hepes (NaOH) 10, pH 7.4, were made from Blu Tip capillary tubes (i.d. 1.1-1.2 mm; Oxford Labware) by using a BB-CH-PC Mecanex puller to obtain pipette resistances that were ˜6 MΩ. An Axopath-IC amplifier was used to obtain records and a JVC Vetter PCM videorecorder was used to store the data on tape. The data were acquired and analyzed on a personal computer with a pClamp suite of programs by transferring the information via an Axolab interface from the amplifier. All three components-amplifier, interface, and software-were obtained from Axon Instruments (Foster City, Calif.)."}, "PKC α isoform [2]": {"biological_target": "T1, PKC α isoform (Homo sapiens, UniProt P17252)", "test": "Immunoblot of PKC α translocation cytosol to membrane in AD cell lines", "format": "cell-based", "design": "endogenous in cells; host or cells: human skin fibroblast lines from AD patients and AC controls", "details": "50 nM", "procedure": "(§1) Cells were grown to confluency (˜90%) in t-75 flasks. […] Fibroblasts were washed twice with ice-cold PBS, scraped in PBS, and collected by low-speed centrifugation. The pellets were resuspended in the following homogenization buffer: 20 mM Tris-HCl, pH 7.5, 2 mM EDTA, 2 mM EGTA, 5 mM DTT, 0.32 M sucrose, 2 mM PMSF, 25 μg/ml leupeptin. Homogenates were immersed in liquid nitrogen, thawed, and centrifuged at 12,000 g for 20 minutes, and the supernatants were used as the cytosolic fraction. The pellets were homogenized in the same buffer containing 1.0% Triton X-100, incubated in ice for 45 minutes, and centrifuged at 12,000 g for 30 minutes. The supernatant from this batch was used as the membranous fraction. […] The membrane was saturated with Blotto blocker (Pierce) by incubating it at RT for an hour. The primary antibody for PKC α isoform (Transduction Laboratories) was diluted (1:1000) in blocking solution and incubated with the membrane for 1 hour at RT. After incubation with the secondary antibody, alkaline phosphatasae antimouse IgG (Vector Laboratories), the membrane was developed using an alkaline phosphatase kit (Vector Laboratories) as per the manufacturer's instructions. The conditions for developing the membranes were kept as similar as possible. […]"}, "PKC δ": {"biological_target": "PKC δ (Homo sapiens, UniProt Q05655)", "sequence (Q05655 whole entry, canonical isoform)": "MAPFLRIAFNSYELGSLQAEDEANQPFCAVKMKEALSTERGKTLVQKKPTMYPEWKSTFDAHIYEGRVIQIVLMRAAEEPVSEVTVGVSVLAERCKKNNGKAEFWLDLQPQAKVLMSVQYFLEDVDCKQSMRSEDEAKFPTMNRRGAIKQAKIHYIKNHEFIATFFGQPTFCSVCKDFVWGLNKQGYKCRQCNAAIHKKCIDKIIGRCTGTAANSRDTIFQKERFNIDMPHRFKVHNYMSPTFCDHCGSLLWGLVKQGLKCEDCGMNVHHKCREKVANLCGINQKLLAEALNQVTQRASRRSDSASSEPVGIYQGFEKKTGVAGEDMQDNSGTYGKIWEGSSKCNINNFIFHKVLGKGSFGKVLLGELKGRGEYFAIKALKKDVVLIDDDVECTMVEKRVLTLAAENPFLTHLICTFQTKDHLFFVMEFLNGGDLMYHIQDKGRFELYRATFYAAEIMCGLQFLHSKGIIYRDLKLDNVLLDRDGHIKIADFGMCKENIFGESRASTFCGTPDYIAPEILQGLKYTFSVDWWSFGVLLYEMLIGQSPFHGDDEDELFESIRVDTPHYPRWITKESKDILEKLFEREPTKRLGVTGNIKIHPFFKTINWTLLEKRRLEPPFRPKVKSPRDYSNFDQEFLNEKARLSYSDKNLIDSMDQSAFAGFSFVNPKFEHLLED", "details": "δ isoform vs α; cited from earlier work"}, "[3]": {"details": "rats, personal communication; cited from earlier work"}, "[4]": {"test_system": "age-matched control (AC) fibroblasts", "test": "TEA-induced [Ca2+] elevation (calcium imaging) in age-matched control (AC) fibroblasts", "details": "50 nM, 1 minute", "protocol": "(§2) The culture medium in which cells were grown was Dulbecco's modified Eagle's medium (GIBCO) supplemented with 10% fetal calf serum (Biofluids, Inc.).\n(§3) Round, 25-mm glass coverslips were flame-polished and placed inside 35-mm Nunc petri dishes. Cells were seeded (ca. 10-15 cells/mm^2) in these petri dishes and used when cell density was equivalent for all cell lines (ca 180 cells/mm^2). […] Briefly, culture medium was removed and cells were washed at least three times with basal salt solution (BSS; in mM: NaCl 140, KCl 5, CaCl2 2.5, MgCl2 1.5, Hepes 10, glucose 5, pH 7.4). The fluorescent probe was loaded by incubating cells in 1 μM fura 2-AM (Molecular Probes) in 1 ml BSS at room temperature (RT). One hour later, cells were washed thoroughly with BSS and 1 ml of fresh BSS was added for [Ca^2+] baseline measurements. […] A 40× Zeiss Fluor (oil immersion) objective lens was used.\nA group of cells was treated with the PKC activator benzolactam prior to the TEA challenge. BL was dissolved in dimethyl sulfoxide (DMSO; Sigma) to achieve a final testing concentration of 50 nM when 1 ml of the dissolved BL was added to the dish 1 minute prior to TEA application. […] Seven to ten petri dishes of cells were tested from each cell line for each experimental condition. In almost all the cell lines, a minimum of 100 cells were tested per treatment per cell line (total 9231 cells). […]"}, "PKC α isoform [5]": {"biological_target": "T1, PKC α isoform", "test": "Immunoblot of PKC α translocation cytosol to membrane in AC cell lines", "format": "cell-based", "design": "endogenous in cells; host or cells: human skin fibroblast lines from AC controls", "details": "AC cells, 50 nM", "procedure": "as §1"}, "sAPP [6]": {"test_system": "sAPP", "test": "sAPP secretion in PC12 cells (immunoblot densitometry)", "details": "for sAPP secretion vs basal level: 10 μM", "protocol": "(§4) Human fibroblasts were obtained from the Coriell Cell Repositories (Camden N.J.). […] The culture medium was DMEM supplemented with 10% serum (FBS, Gibeo). PC12 cells were obtained from the American Cell Culture Collection and grown to confluence in T75 flasks containing DMEM supplemented with 5% FPS (Gibeo), 10% horse serum (Biofluids) and 1% of a mixture of penicillin (5000 units/ml in G sodium) and streptomycin (5000 μg/ml).\n(§5) Complete culture medium was removed just prior to experiments.\n(§6) After two hours of incubation, the supernatant was removed and the secreted proteins were precipitated with 10% TCA and resuspended in Tris-glycine SDS electrophoresis sample buffer (Novex). The samples were boiled for 5 min, subjected to electrophoresis and later to immunoblotting for identification of sAPP.\n(§7) Conventional immunoblotting techniques were employed. […] The volume of sample loaded was corrected for total cell protein per flask. Proteins were transferred electrophoretically to nitrocellulose membranes. The membranes were saturated with Blotto blocker (Pierce) and incubated overnight at 4° C. with 1:500 6E10 monoclonal antibody from Senetek. After washing, the membranes were incubated for 1 h at room temperature with the secondary antibody, alkaline phosphatase anti-mouse. IfG (Vector Laboratories) and developed using a BCIP/NBT subtrate kit (Vector Laboratories). The bands were quantitated by densitometric analyses (NIH Image, version 1.6) after obtaining a digital image of each membrane."}, "[7]": {"test_system": "fibroblasts from AD patients", "test": "TEA-induced [Ca2+] elevation (calcium imaging) in AD fibroblasts", "protocol": "as §2, §3\nA group of cells was treated with the PKC activator benzolactam prior to the TEA challenge. BL was dissolved in dimethyl sulfoxide (DMSO; Sigma) to achieve a final testing concentration of 50 nM when 1 ml of the dissolved BL was added to the dish 1 minute prior to TEA application. […] Seven to ten petri dishes of cells were tested from each cell line for each experimental condition. In almost all the cell lines, a minimum of 100 cells were tested per treatment per cell line (total 9231 cells). There were only three AC cell lines for which the number of cells in a couple of treatment groups was above 65 but below 100. Experiments for each cell line were repeated on at least one separate occasion (minimum 1-week interval). Response in a given cell was characterized as a double-fold increase in baseline [Ca^2+]"}, "PKC ε": {"biological_target": "T2, PKC ε (Homo sapiens, UniProt Q02156)", "T2 sequence (Q02156 1-737)": "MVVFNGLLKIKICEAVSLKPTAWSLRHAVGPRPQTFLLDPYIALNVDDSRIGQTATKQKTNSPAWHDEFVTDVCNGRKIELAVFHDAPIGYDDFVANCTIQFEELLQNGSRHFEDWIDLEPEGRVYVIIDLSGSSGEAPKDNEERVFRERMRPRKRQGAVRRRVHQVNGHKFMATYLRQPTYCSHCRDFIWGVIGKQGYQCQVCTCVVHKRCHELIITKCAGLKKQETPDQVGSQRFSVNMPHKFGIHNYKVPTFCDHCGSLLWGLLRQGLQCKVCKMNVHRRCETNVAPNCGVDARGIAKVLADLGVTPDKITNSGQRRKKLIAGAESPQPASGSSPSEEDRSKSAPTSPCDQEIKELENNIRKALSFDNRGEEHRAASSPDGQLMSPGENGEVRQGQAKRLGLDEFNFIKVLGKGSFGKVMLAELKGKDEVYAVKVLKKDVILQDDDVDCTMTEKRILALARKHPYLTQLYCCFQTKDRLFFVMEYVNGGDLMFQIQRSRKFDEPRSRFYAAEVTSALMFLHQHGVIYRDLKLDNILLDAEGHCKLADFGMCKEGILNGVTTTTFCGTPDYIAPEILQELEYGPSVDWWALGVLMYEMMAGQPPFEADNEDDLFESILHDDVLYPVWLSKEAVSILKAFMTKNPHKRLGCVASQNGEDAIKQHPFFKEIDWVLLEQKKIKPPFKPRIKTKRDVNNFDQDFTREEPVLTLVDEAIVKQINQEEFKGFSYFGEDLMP", "details": "ε isoform vs α; cited from earlier work"}, "sAPP [8]": {"test_system": "sAPP", "test": "sAPP secretion in AD fibroblasts (immunoblot densitometry)", "protocol": "as §4, §5, §6, §7"}, "sAPP [9]": {"test_system": "sAPP", "test": "sAPP secretion in age-matched control fibroblasts (immunoblot densitometry)", "protocol": "as §4, §5, §6, §7"}}, "data": [{"smiles": "CCCCCCCCC#Cc1ccc2c(c1)C[C@@H](CO)NC(=O)[C@H](C(C)C)N2C", "note": "[BL, (2S, 5S)-8-(1′-decynyl)benzolactam]", "values": [{"measurement": "K+ channel activity after BL activation", "setting": "[1]; AD cell line AG06848, 1 minute BL treatment", "result": 54, "unit": "%"}, {"measurement": "cells showing unambiguous 113 pS K+ channel", "setting": "[1]; of 13 recordings silent before BL, 1 minute BL treatment", "result": 7}, {"measurement": "redistribution of PKC α from cytosol to membrane vs basal ratio", "setting": "PKC α isoform [2]; 1 minute", "result": "pronounced redistribution"}, {"measurement": "PKC α particulate/soluble ratio", "setting": "PKC α isoform [2]; 15 minutes", "result": 1.156}, {"measurement": "affinity lower than for PKC α", "setting": "PKC δ", "result": "at least 10 fold"}, {"measurement": "antitumoral activity", "setting": "[3]", "result": "shows antitumoral activity"}, {"measurement": "percentage of response to TEA vs untreated or DMSO-treated cells", "setting": "[4]", "result": "did not differ"}, {"measurement": "PKC translocation vs basal levels", "setting": "PKC α isoform [5]; 1 minute", "result": "ns"}, {"measurement": "PKC α particulate/soluble ratio", "setting": "PKC α isoform [5]; 15 minutes", "result": 1.72}, {"measurement": "sAPP secretion", "setting": "sAPP [6]", "result": "~3", "unit": "fold"}, {"measurement": "sAPP secretion vs basal level", "setting": "sAPP [6]", "result": "significantly increased"}, {"measurement": "percentage of cells responding to TEA vs untreated and DMSO-treated controls", "setting": "[7]; AD cell lines, 50 nM, 1 minute", "result": "significantly increased"}, {"measurement": "percentage of cells responding to TEA", "setting": "[7]; AD cells treated with BL (50 nM, 1 minute) before 100 mM TEA", "result": 19.58, "unit": "%"}, {"measurement": "affinity lower than for PKC α", "setting": "PKC ε", "result": "at least 10 fold"}, {"measurement": "sAPP secretion vs basal", "setting": "sAPP [8]; AD cell lines, 0.5 μM, 2 h", "result": "did not reach statistical significance"}, {"measurement": "sAPP secretion vs basal, post test significance", "setting": "sAPP [8]; AD cell lines, 1 μM, 2 h", "result": "significance level of p<0.001"}, {"measurement": "sAPP secretion over basal", "setting": "sAPP [8]; AD cell lines, 10 μM, 2 h", "result": "almost three-fold increase"}]}, {"smiles": "CCCCCCCCCCCC(=O)Oc1ccc([C@H]2[C@@H](C(C)C)C(=O)N[C@@H]2CO)c2ccccc12", "note": "[LQ12]", "values": [{"measurement": "sAPP secretion vs basal level", "setting": "sAPP [6]", "result": "significantly increased"}]}, {"smiles": "CCCC(=O)O[C@@H]1[C@@H](C)[C@@]2(O)[C@@H](C=C(CO)C[C@]3(O)C(=O)C(C)=C[C@@H]23)[C@@H]2C(C)(C)[C@]12OC(=O)CCC", "note": "[PDBu, phorbol 12,13-dibutyrate]", "values": [{"measurement": "sAPP secretion vs basal", "setting": "sAPP [9]; age-matched control cell lines, 0.5, 1 and 10 μM", "result": "statistical significance was not reached"}, {"measurement": "TEA response vs 4α-PHR-treated cells", "setting": "[7]; AD cells, 50 nM, 45 minutes", "result": "did not differ"}, {"measurement": "TEA response, shorter incubation times", "setting": "[7]; AD cells, 1 and 15 minutes incubation", "result": "without effect"}, {"measurement": "sAPP secretion vs basal", "setting": "sAPP [8]; AD cell lines, 0.5 μM, 2 h", "result": "maximal at 500 nM"}, {"measurement": "sAPP secretion vs basal", "setting": "sAPP [8]; AD cell lines, 0.5, 1 and 10 μM, 2 h", "result": "statistically significant increases"}]}, {"smiles": "CN[C@@H]1C[C@H]2O[C@@](C)([C@@H]1OC)n1c3ccccc3c3c4c(c5c6ccccc6n2c5c31)C(=O)NC4", "note": "[staurosporine]", "values": [{"measurement": "sAPP secretion, staurosporine alone", "setting": "sAPP [9]; age-matched control cell lines", "result": "without effect"}, {"measurement": "effect on increase in sAPP secretion caused by 10 μM BL", "setting": "sAPP [9]; age-matched control cell lines, 0.5 μM staurosporine pretreatment", "result": "effective in preventing"}, {"measurement": "effect on BL-induced sAPP secretion", "setting": "sAPP [8]; AD cell lines, 0.5 μM staurosporine 30 min prior to BL", "result": "completely prevented"}, {"measurement": "effect on phorbol (PDBu)-induced sAPP secretion", "setting": "sAPP [8]; staurosporine pretreatment, data not shown", "result": "significantly reduced"}]}]}
